# Test results: patent publication US7341836B2, “Modified cyclic nucleotide gated ion channels” (The Regents of the University of Colorado, priority 2001, dated 2008)
# Entries after “also recorded” stand apart in the source; their conditions may differ.
# What was measured:
# [1] = system: PDE activity in GH4C1 cells; assay: Effect of PDE inhibitors, forskolin and VIP on cAMP levels (Ca2+ influx through CNG channels); assay type: cell-based, rat; details: for d(ΔF/F0)/dt: basal cAMP, inhibitor concentration (μM); for d(ΔF/F0)/dt / Ca2+ influx induced by the PDE inhibitor alone (basal cAMP): C460W/E583M channels; for Ca2+ influx induced by the PDE inhibitor alone (basal cAMP): no AC stimulation; for effect on forskolin-induced Ca2+ influx / PDE activity: Δ61-90/C460W/E583M channels, 10 μM forskolin
# Method in brief: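 GH4C1 rat pituitary cells expressing high-affinity C460W/E583M or Δ61-90/C460W/E583M CNG channels (adenovirus), with 1 μM nimodipine at time zero; cAMP read as Ca2+ influx rate d(ΔF/F0)/dt. PDE inhibitors or 100 μM IBMX added at 60 s, then 10 μM forskolin or 100 nM VIP at 240 s; mean±SE.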
# [2] = target: T1, PDE II (Homo sapiens, UniProt O00408); details: read-out: IC50, PDE II; cited from earlier work
# T1 construct: host or cells: heterologously expressed human PDE; human heart
# [3] = target: PDE V (UniProt O76074); details: cited from earlier work
# [4] = system: PDE III; details: cited from earlier work
# [5] = target: T2, PDE XI (Homo sapiens, UniProt Q9HCR9); details: cited from earlier work
# T2 construct: host or cells: heterologously expressed
# T2 sequence (Q9HCR9 445-933 limits assumed): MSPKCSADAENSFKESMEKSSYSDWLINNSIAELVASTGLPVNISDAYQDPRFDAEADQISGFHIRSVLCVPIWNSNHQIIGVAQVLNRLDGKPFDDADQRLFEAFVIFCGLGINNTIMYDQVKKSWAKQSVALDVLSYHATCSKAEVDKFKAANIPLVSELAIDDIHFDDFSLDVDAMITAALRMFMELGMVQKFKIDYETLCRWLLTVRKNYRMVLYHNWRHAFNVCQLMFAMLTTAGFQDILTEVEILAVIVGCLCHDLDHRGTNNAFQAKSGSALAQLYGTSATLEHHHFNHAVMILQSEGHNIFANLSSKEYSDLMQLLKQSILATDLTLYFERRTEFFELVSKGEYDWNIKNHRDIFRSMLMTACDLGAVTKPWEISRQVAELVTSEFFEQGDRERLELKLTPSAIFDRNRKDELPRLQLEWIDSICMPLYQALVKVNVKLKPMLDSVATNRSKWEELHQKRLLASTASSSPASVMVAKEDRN
# T1 sequence (O00408 whole entry): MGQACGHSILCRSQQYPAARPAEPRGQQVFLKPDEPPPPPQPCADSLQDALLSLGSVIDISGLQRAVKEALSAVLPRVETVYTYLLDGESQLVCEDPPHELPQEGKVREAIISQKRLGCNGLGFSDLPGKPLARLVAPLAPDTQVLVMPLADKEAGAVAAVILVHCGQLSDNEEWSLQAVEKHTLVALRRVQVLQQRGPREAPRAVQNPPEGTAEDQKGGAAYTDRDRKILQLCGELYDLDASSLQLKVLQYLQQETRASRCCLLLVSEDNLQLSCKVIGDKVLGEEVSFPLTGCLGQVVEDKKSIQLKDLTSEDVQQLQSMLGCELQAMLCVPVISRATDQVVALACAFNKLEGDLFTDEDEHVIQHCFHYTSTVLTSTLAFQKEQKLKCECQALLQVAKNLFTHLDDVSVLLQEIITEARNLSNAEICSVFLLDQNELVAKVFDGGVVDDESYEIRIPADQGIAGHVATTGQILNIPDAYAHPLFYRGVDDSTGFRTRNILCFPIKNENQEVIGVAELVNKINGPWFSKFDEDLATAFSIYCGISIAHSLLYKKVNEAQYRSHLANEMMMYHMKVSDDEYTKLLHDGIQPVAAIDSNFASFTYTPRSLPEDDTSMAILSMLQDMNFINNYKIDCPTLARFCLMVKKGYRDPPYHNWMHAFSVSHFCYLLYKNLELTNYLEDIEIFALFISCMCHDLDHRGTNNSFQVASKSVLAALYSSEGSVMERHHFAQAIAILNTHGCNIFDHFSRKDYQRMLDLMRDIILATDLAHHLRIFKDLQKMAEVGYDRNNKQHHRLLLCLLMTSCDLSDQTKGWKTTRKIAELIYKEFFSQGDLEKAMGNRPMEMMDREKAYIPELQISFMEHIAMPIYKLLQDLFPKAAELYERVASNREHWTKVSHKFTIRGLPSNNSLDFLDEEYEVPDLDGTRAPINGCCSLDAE
SMILES,d(ΔF/F0)/dt [1],IC50 [2],IC50 [3],Ca2+ influx induced by the PDE inhibitor alone (basal cAMP) [1],effect on forskolin-induced Ca2+ influx / PDE activity [1],IC50 [4],IC50 [5]
CCCCCC[C@@H]([C@@H](C)O)n1cnc2c(N)ncnc21 (racemic) [EHNA],0.0029 ± 0.0011 s⁻¹,0.5 to 1 µM,> 500 µM,–,–,–,–
"CCCCOc1cc(CC2CNC(=O)N2)ccc1OC (centres unmarked) [RO-20-1724, 4-(3-butoxy-4-methoxybenzyl)-2-imidazolidinone]",0 s⁻¹,> 100 µM,250 µM,No RO-20-1724- or rolipram-sensitive PDE was observed,also inhibited PDE activity; also recorded: increase forskolin-induced Ca^2+ influx through CNG channels,52 µM,–
COc1ccc(C2CNC(=O)C2)cc1OC1CCCC1 (centres unmarked) [Rolipram],0 s⁻¹,> 100 µM,–,No RO-20-1724- or rolipram-sensitive PDE was observed,also inhibited PDE activity; also recorded: increase forskolin-induced Ca^2+ influx through CNG channels,–,> 100 µM
"CC(C)Cn1c(=O)n(C)c(=O)c2[nH]cnc21 [IBMX, 3-isobutyl-1-methylxanthine]",–,20 to 50 µM,4 to 7 µM,induced Ca^2+ influx through CNG channels,significantly inhibited PDE activity; also recorded: increase forskolin-induced Ca^2+ influx through CNG channels,2 µM,49.8 µM
